The values below come from article PMC8708252, “Silymarin Dehydroflavonolignans Chelate Zinc and Partially Inhibit Alcohol Dehydrogenase” (Nutrients, 2021).

What all share (assay type): biochemical
The target of assay [1] is T1, bovine glutamate dehydrogenase type I (GDH) (Bos taurus, UniProt P00366).
T1 construct: gene GLUD1
The assay can be described thus: NADH absorbance ([…] nm) assay with and without […] zinc.

Assay [2] has as its target T2, equine alcohol dehydrogenase (ADH) (Equus caballus, UniProt P00327).
T2 construct: recombinant equine ADH
The assay can be described thus: NADH absorbance ([…] nm) ethanol oxidation assay with recombinant enzyme.

For assay [3], the target named is T3, yeast alcohol dehydrogenase (ADH) (Saccharomyces cerevisiae, UniProt P00330).
T3 construct: gene ADH1
T3 sequence (P00330 2-348): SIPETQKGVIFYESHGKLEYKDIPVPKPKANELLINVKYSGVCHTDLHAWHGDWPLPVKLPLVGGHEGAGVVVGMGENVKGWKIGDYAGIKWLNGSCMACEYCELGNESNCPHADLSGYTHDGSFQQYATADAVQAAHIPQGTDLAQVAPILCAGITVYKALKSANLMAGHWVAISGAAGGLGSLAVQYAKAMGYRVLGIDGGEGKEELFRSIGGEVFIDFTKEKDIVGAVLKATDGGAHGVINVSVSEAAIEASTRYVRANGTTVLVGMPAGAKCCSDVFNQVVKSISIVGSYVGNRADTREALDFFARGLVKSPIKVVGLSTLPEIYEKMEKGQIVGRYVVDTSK
Put plainly: NADH absorbance ([…] nm) ethanol oxidation assay with isolated enzyme.

For assay [4], the target named is T2, equine alcohol dehydrogenase (ADH). The assay can be described thus: NADH absorbance ([…] nm) ethanol oxidation assay with recombinant enzyme. This is another data set of the same source.
For assay [5] the target is unchanged. Described as above. The source holds these as a separate data set.

Each structure is given as a SMILES string. pIC50: −log10 of the molar value.

T2 sequence (P00327 2-375): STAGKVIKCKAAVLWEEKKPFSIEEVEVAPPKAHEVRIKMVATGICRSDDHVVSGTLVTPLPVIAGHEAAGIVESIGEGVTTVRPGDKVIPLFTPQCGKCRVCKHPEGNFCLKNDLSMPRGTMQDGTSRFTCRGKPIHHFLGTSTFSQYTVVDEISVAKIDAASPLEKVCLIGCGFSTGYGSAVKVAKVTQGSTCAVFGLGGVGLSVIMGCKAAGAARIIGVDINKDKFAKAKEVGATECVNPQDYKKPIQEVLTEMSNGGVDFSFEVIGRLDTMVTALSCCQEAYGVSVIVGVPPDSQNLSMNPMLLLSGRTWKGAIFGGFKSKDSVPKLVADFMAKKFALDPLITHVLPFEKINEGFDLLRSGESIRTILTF
T1 sequence (P00366 58-558): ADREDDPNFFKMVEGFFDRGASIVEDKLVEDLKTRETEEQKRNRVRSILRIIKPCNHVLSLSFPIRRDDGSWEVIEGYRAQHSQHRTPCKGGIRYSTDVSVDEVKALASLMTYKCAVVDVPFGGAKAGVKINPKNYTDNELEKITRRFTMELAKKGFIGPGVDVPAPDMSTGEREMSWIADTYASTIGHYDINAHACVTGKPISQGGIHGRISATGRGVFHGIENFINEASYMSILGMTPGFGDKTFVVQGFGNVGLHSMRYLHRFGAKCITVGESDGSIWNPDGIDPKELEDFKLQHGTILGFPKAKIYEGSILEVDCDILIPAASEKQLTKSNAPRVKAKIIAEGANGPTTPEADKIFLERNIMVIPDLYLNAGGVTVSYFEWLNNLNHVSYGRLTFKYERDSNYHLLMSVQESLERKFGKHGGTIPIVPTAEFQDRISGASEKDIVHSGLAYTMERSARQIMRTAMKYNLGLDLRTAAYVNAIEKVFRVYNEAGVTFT

Turning to `COc1cc(C2Oc3cc(-c4oc5cc(O)cc(O)c5c(=O)c4O)ccc3OC2CO)ccc1O` (racemic) [DHS, 2,3-dehydrosilybin], the “NADH absorbance (340 nm) assay with and without 150 μM zinc” value in assay [1] was “they were particularly potent inhibitors of the enzyme itself”.
For the compound `COc1cc([C@H]2Oc3cc(-c4oc5cc(O)cc(O)c5c(=O)c4O)ccc3O[C@@H]2CO)ccc1O` [DHS-A, 2,3-dehydrosilybin A], the inhibition at 10 µM in assay [2] is roughly 20%.
On to `Cc1cn[nH]c1` [fomepizole], for which the negative-log IC50 (pIC50) in assay [3] is 1.85; in assay [4], 5.28.
With `COc1cc([C@@H]2Oc3cc(-c4oc5cc(O)cc(O)c5c(=O)c4O)ccc3O[C@H]2CO)ccc1O` [DHS-B, 2,3-dehydrosilybin B], the “NADH absorbance (340 nm) ethanol oxidation assay with recombinant enzyme” value in assay [5] is listed as “Inhibition of equine ADH by active flavonolignans”.

As usually defined, the inhibition is the change of the read-out against control, counted positive when it falls. As usually defined, the pIC50 is −log10 of the IC50, conventionally taken in molar units.
